Like-named read-outs stand apart in the source and are kept apart here.
Columns and labels:
[1] = system: H3255 (EGFR L858R); assay: Proliferation (CellTiter-Glo), H3255; assay type: cell-based, human; conditions: Homo sapiens, NCI-H3255; H3255, EGFR L858R, 72 hours; read-out: GI50
Description: (§2) The human cancer cell lines A549, A431, H3255, H1975, PC-9, HCC827, H23, H460, A549, H358 and H2122 cells were purchased from the American Type Culture Collection (ATCC) (Manassas, VA, USA). […] A549 and A431 were cultured in DMEM media (Corning, USA) with 10% FBS and supplemented with 2% L-glutamine and 1% pen/strep. H3255 was cultured in BEGM media (LONZA, USA) with 10% FBS and supplemented with 2% L-glutamine and 1% pen/strep.
(§3) Cells were grown in 96-well culture plates (2500–3000/well). For adherent cell lines, compounds of various concentrations were added into the plates after cells were cultured for 12 hours. Cell proliferation was determined after treatment with compounds for 72 hours. Cell viability was measured using the CellTiter–Glo assay (Promega, USA), according to the manufacturer's instructions, and luminescence was measured in a multi-label reader (Envision, PerkinElmer, USA). Data were normalized to control groups (DMSO) and represented by the mean of three independent measurements with standard error <20%. GI50 values were calculated using Prism 5.0 (GraphPad Software, San Diego, CA).

[2] = system: H1975 (EGFR L858R/T790M); assay: Proliferation (CellTiter-Glo), H1975; assay type: cell-based, human; conditions: Homo sapiens, NCI-H1975; H1975, EGFR L858R/T790M, 72 hours; read-out: GI50
Description: as §2, §3

[3] = system: PC-9 (EGFR Del19); assay: Proliferation (CellTiter-Glo), PC-9; assay type: cell-based, human; conditions: Homo sapiens; PC-9, EGFR Del19, 72 hours; read-out: GI50
Description: as §2, §3

[4] = system: HCC827 (EGFR Del19); assay: Proliferation (CellTiter-Glo), HCC827; assay type: cell-based, human; conditions: Homo sapiens; HCC827, EGFR Del19, 72 hours; read-out: GI50
Description: as §2, §3

[5] = system: H23 (EGFR wt); assay: Proliferation (CellTiter-Glo), H23; assay type: cell-based, human; conditions: Homo sapiens; H23, EGFR wt, 72 hours; read-out: GI50
Description: as §2, §3

[6] = system: H460 (EGFR wt); assay: Proliferation (CellTiter-Glo), H460; assay type: cell-based, human; conditions: Homo sapiens, NCI-H460; H460, EGFR wt, 72 hours; read-out: GI50
Description: as §2, §3

[7] = system: A549 (EGFR wt); assay: Proliferation (CellTiter-Glo), A549; assay type: cell-based, human; conditions: Homo sapiens; A549, EGFR wt, 72 hours; read-out: GI50
Description: as §2, §3

[8] = system: H358 (EGFR wt); assay: Proliferation (CellTiter-Glo), H358; assay type: cell-based, human; conditions: Homo sapiens, NCI-H358; H358, EGFR wt, 72 hours; read-out: GI50
Description: as §2, §3

[9] = system: A431 (EGFR wt); assay: Proliferation (CellTiter-Glo), A431; assay type: cell-based, human; conditions: Homo sapiens, A-431; A431, EGFR wt, 72 hours; read-out: GI50
Description: as §2, §3

[10] = system: H2122 (EGFR wt); assay: Proliferation (CellTiter-Glo), H2122; assay type: cell-based, human; conditions: Homo sapiens, NCI-H2122; H2122, EGFR wt, 72 hours; read-out: GI50
Description: as §2, §3

[11] = system: EGFR Y1068 in PC-9, HCC827, and H3255; assay: EGFR Y1068 auto-phosphorylation in EGFR primary mutant cell lines; assay type: cell-based, human; conditions: range over PC-9, HCC827, and H3255
Description: Antibodies were used at 1:1000.
(§4) Cells were then washed with PBS and lysed in cell lysis buffer.

[12] = system: H1975 cells; assay: Cell cycle analysis (FACS), H1975; assay type: cell-based, human
Description: (§5) The cells were fixed in 70% cold ethanol and incubated at −20°C overnight then stained with PI/RNase staining buffer (BD Pharmingen). Flow cytometry was performed using a FACS Calibur (BD), and results were analyzed by ModFit software.

[13] = system: H460 cells; assay: Cell cycle analysis (FACS), H460; assay type: cell-based, human; conditions: H460, 48h
Description: as §5

[14] = system: PC-9 cells; assay: Cell cycle analysis (FACS), PC-9; assay type: cell-based, human; conditions: PC-9, 24h
Description: as §5

[15] = system: H3255 cells; assay: Cell cycle analysis (FACS), H3255; assay type: cell-based, human; conditions: H3255, 24h
Description: as §5

[16] = system: HCC827 cells; assay: Cell cycle analysis (FACS), HCC827; assay type: cell-based, human; conditions: HCC827, 24 h
Description: as §5

[17] = system: PC-9 xenograft; assay: PC-9 xenograft mouse model; assay type: in vivo, Nude (Nu/Nu) mice; conditions: PC-9 xenograft, 25, 50, 100 mg/Kg BID oral gavage, 22 days
Description: (§1) Tumor diameter was measured 3 times weekly. Tumor volumes (V) were calculated by the equation (V = length × width × width/2). ALL experiments and procedures followed the guidelines of the Institutional Animal Care and Use Committees of National Institue of Biological Sciences, Beijing.

[18] = system: H1975 xenograft; assay: H1975 xenograft mouse model; assay type: in vivo, Nude (Nu/Nu) mice
Description: as §1

[19] = system: PI3K kinase; assay: PI3K kinases ADP-Glo assay; assay type: biochemical; conditions: Fig. S8
[20] = system: Akt Thr308 and Ser473 phosphorylation in H1975; assay: Signaling pathway immunoblotting, H1975; assay type: cell-based, human; conditions: H1975, 4 hours
Description: Antibodies were used at 1:1000.
as §4

[21] = system: H1975 cells; conditions: DMSO = 100
Description: as §3

[22] = system: H1975 cells; assay: cells; conditions: Homo sapiens, NCI-H1975, read-out: Relative activity (%)
Description: as §3

`C=CC(=O)N1CCC[C@@H](n2nc(-c3ccc(Oc4ccccc4)cc3)c3c(N)ncnc32)C1` [ibrutinib, Ibrutinib] was tested. Which GI50 [1] did it give?
Its GI50 is 110 nM.

And the GI50 [2]?
The GI50 was 1200 nM.

What about the GI50 [3] of the same compound?
Its GI50 is 50 nM.

And the GI50 [4]?
The GI50 was 63 nM.

And the GI50 [5]?
The GI50 was over 10000 nM.

And the GI50 [6]?
Its GI50 is over 10000 nM.

And the GI50 [7]?
Its GI50 is over 10000 nM.

What about the GI50 [8] of the same compound?
The GI50 was over 10000 nM.

And the GI50 [9]?
The GI50 was over 10000 nM.

And the GI50 [10]?
Its GI50 is over 10000 nM.

What about the EC50 [11] of the same compound?
The EC50 was 23 to 58 nM.

And the “%G0-G1” value ([12]; H1975, 12h, 0.3 μM)?
The value was 69.44%.

And the “%G2-M” value ([12]; H1975, 12h, 0.3 μM)?
The value was 10.92%.

And the “%G0-G1” value ([12]; H1975, 12h, 3 μM)?
The value was 74.28%.

And the “%G0-G1” value ([12]; H1975, 24h, 0.3 μM)?
The value was 81.96%.

And the “%G2-M” value ([12]; H1975, 24h, 0.3 μM)?
Its value is 6.76%.

And the “%G0-G1” value ([12]; H1975, 24h, 3 μM)?
Its value is 86.20%.

What about the “%G2-M” value ([12]; H1975, 24h, 3 μM) of the same compound?
The value was 4.83%.

What about the “%G0-G1” value ([12]; H1975, 48h, 0.3 μM) of the same compound?
Its value is 92.06%.

And the “%G2-M” value ([12]; H1975, 48h, 0.3 μM)?
The value was 2.43%.

And the “%G0-G1” value ([12]; H1975, 48h, 3 μM)?
The value was 93.79%.

And the “%G2-M” value ([12]; H1975, 48h, 3 μM)?
Its value is 1.31%.

And the “%G0-G1” value ([13]; 0.3 μM)?
Its value is 69.88%.

What about the “%G2-M” value ([13]; 0.3 μM) of the same compound?
Its value is 5.02%.

And the “%G0-G1” value ([13]; 3 μM)?
The value was 70.49%.

And the “%G2-M” value ([13]; 3 μM)?
The value was 5.09%.

And the “%G0-G1” value ([14]; 0.3 μM)?
Its value is 81.91%.

What about the “%G2-M” value ([14]; 0.3 μM) of the same compound?
The value was 10.77%.

What about the “%G0-G1” value ([14]; 3 μM) of the same compound?
The value was 84.9%.

And the “%G2-M” value ([14]; 3 μM)?
Its value is 8.54%.

What about the “%G0-G1” value ([15]; 0.3 μM) of the same compound?
Its value is 82.82%.

And the “%G2-M” value ([15]; 0.3 μM)?
The value was 9.73%.

And the “%G0-G1” value ([15]; 3 μM)?
Its value is 89.05%.

What about the “%G2-M” value ([15]; 3 μM) of the same compound?
Its value is 5.24%.

And the “%G0-G1” value ([16]; 0.3 μM)?
The value was 78.26%.

And the “%G2-M” value ([16]; 0.3 μM)?
Its value is 6.86%.

What about the “%G0-G1” value ([16]; 3 μM) of the same compound?
Its value is 80.37%.

And the “%G2-M” value ([16]; 3 μM)?
Its value is 5.91%.

What about the “anti-tumor activity (tumor progression)” value [17] of the same compound?
Its value is “tumor progression slow down efficacy”.

And the “anti-tumor activity (tumor progression)” value ([18]; 50 mg/kg BID oral gavage, 23-day)?
The value was “slowed down tumor progression”.

What about the “anti-tumor activity, higher dosage versus 50 mg/kg BID” value ([18]; 100 mg/Kg BID) of the same compound?
The value was “did not improve efficacy”.

What about the “enzymatic activity against PI3K kinase” value [19] of the same compound?
The value was “did not have apparent enzymatic activity”.

And the “phosphorylation of Akt Thr308 and Ser473” value [20]?
Its value is “significantly affected the phosphorylation of Akt Thr308 and Ser473”.

And the “H1975 cell lines growth” value ([21]; single agent 0.37 μM)?
Its value is 43.77.

And the “H1975 cell lines growth” value ([21]; single agent 1.1 μM)?
The value was 34.56.

And the activity at 1.1 µM [22]?
Its activity at 1.1 µM is 52.3%.

From publication PMC4741607 (Oncotarget, 2015)
